Assay results published in patent US20090275099A1 (priority 2004, published 2009).

How the values were obtained:
[1] = target: T1, human OSCP (Homo sapiens, UniProt P48047); test: OSCP binding by quenching of intrinsic protein fluorescence
T1 construct: made in house; host or cells: E. coli
Source text: To determine if Bz-423 indeed binds to the OSCP and the affinity of the interaction, human OSCP was overexpressed in E. coli. […] Bz-423 is the only known inhibitor of the ATPase that functions through binding to the OSCP.

[2] = target: mitochondrial F1F0-ATPase (Bos taurus, UniProt P13621+P32876); test: biochemical; parameters: species or system bovine; details: for EC50: bovine SMPs
[3] = system: Ramos cells; test: cell culture cytotoxicity assays; assay type: cell-based, human; details: 10% FBS
Procedure: (§1) Like most 1,4-benzodiazepines, Bz-423 binds strongly to bovine serum albumin (BSA), which reduces the effective concentration of drug free in solution. For example, in tissue culture media containing 10% (v/v) fetal bovine serum (FBS), ca. 99% of the drug is bound to BSA. Therefore, cell culture cytotoxicity assays are conducted in media with 2% FBS to reduce binding to BSA and increase the free [Bz-423]. Under these conditions, the dose response-curve is quite sharp such that there is a limited concentration range at which Bz-423 is only partly effective. Since some benzodiazepines are known to have anti-proliferative properties, the effect of Bz-423 at concentrations <ED50 were carefully analyzed and observed that in addition to inducing apoptosis, Bz-423 prevented cell growth after 3 d in culture. In these low serum conditions, the cytotoxic and anti-proliferative effects overlapped making it difficult to study each effect independently. […] While higher amounts of drug may also block proliferation, it caused apoptosis well before the effects on proliferation could be observed.
To confirm the decrease in cell number relative to control cells after 3 d of treatment is due to decreased proliferation and not cell death balanced by proliferation, in addition to cell counting, cell divisions were studied. PKH-67 is a fluorescent probe that binds irreversibly to cell membranes and upon cell division is partitioned equally between the daughter cells, making it possible to quantify cell division by flow cytometry. Ramos cells stained with PKH67 and treated with Bz-423 had fewer cell divisions at sub-cytotoxic concentrations which confirmed that the decrease in cell number was due to anti-proliferative affects and not cell death. To determine if Bz-423 induced anti-proliferation was specific to Ramos cells, cell counting and cell cycle experiments were done in other B cell lines and cell lines derived from solid tumors.

[4] = system: Jurkat cells; test: cell death at 24 h; assay type: cell-based; details: Homo sapiens, Jurkat, 24 h, read-out: Cell death EC50 (μM), Jurkat cells
Procedure: (§2) Since an early mitochondrial superoxide (O2^−) mediates apoptosis induced by Bz-423, the O2^− response of cells 1 h following incubation with drug was examined, as well as cell death at 24 h, as previously described (see, e.g., Blatt, N. B., et al., 2002 J Clin Invest 110, 1123-1132; incorporated herein by reference in its entirety).

[5] = system: Ramos cells; test: early O2− (ROS) response, 1 h; assay type: cell-based, human; details: Homo sapiens, Ramos, 1 h, read-out: ROS EC50 (μM), Ramos cells
Procedure: (§3) To detect O2^−, cells are incubated with DHE (10 μM) for 30 min at 37° C. and are analyzed by flow cytometry to measure ethidium fluorescence. Flow analysis of mitochondrial transmembrane potential (ψm) is conducted by labeling cells with DiOC6(3) (20 nM) for 15 min at 37 degrees C. A positive control for disruption of ψm is established using carbonyl cyanide m-chlorophenylhydrazone (CCCP, 50 μM). Caspase activation assays are performed with FAM-VAD-fluoromethylketone. Processing of the substrate is evaluated by flow cytometry.
as §2

[6] = target: peripheral benzodiazepine receptor (“PBR”) (Homo sapiens, UniProt P30536); test: binding to the peripheral benzodiazepine receptor
[7] = system: migration inhibitory factor (MIF); test: gene expression profiling of Ramos cells (Affymetrix U133A); assay type: cell-based, human
Procedure: In vitro testing with Ramos cells to determine the changes in gene expression (at the level of mRNA) induced by Bz-423 was performed by culturing cells at a density of 500,000 cells per ml. Solvent control (DMSO, final concentration 0.1% V/V]), Bz-423, or Bz-OMe (10 μM) was added to cells. After 4 h, cells were harvested and RNA prepared using Trizol Reagent (#15596-018, Life Technologies, Rockville, Md.) and the RNeasy Maxi Kit (# 75162, Qiagen, Valencia, Calif.) according to manufacturers protocols. Single stranded cDNA was synthesized by reverse transcription using poly (A) RNA present in the starting total RNA sample. Single stranded cDNA was converted into double stranded cDNA and then in vitro transcription carried out in the presence of biotinylated UTP and CTP to produce biotin-labeled cRNA. cRNA was fragmented in the presence of Mg2+, and hybridized to the human genome U133A Genechip array (Affymetrix). Hybridization results were quantified using a GeneArray scanner and analysis carried out according to the instructions provided by Affymetrix. […]
The data were analyzed to detect genes changes Bz treatment according to the criteria that the log-transformed mean signal changed at least four-fold in treated compared to vehicle control samples and that the coefficient of variance for control values (n=4) was less than 10%. […]

[8] = system: Jurkat cells; test: early O2− (ROS) response, 1 h; assay type: cell-based; details: Homo sapiens, Jurkat, 1 h, read-out: ROS EC50 (μM), Jurkat cells
Procedure: as §3, §2

[9] = target: T2, bovine serum albumin (BSA) (Bos taurus, UniProt P02769); test: binding to bovine serum albumin in tissue culture media; assay type: in vitro ADME; details: tissue culture media containing 10% (v/v) FBS
T2 construct: from tissue; host or cells: fetal bovine serum in tissue culture media
Procedure: as §1

peripheral benzodiazepine receptor (“PBR”), sequence (P30536 whole entry, species assumed): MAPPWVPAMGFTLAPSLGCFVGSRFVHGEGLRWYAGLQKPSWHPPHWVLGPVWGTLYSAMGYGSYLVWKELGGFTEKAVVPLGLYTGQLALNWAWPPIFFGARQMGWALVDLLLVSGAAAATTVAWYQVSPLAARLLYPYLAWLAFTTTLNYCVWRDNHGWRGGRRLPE
T1 sequence (P48047 24-213): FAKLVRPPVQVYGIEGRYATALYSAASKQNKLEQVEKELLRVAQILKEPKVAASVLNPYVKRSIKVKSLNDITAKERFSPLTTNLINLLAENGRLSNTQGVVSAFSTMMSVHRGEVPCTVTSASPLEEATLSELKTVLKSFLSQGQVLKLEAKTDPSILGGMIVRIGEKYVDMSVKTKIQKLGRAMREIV
T2 sequence (P02769 25-607): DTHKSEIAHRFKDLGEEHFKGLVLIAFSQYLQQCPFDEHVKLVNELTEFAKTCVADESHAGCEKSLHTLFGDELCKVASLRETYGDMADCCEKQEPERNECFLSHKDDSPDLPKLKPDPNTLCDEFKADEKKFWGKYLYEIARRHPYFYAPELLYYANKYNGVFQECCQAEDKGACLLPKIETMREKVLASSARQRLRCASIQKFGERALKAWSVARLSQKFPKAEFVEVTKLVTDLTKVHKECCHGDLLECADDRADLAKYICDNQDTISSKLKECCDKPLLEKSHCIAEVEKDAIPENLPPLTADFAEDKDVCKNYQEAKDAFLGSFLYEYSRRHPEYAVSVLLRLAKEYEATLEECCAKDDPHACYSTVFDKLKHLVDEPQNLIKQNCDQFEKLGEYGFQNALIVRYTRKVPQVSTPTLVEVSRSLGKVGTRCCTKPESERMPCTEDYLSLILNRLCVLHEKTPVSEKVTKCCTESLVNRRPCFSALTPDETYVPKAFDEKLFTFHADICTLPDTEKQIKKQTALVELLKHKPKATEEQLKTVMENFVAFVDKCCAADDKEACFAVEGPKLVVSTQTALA

## CN1C(=O)C(Cc2ccc3ccccc3c2)N=C(c2ccc(O)cc2)c2cc(Cl)ccc21 (stereo not drawn) [Bz-423]
[1]
  Kd: 0.2 ± 0.04 µM
[2]
  Ki: 11 ± 0.4 µM
[2]; ATPase activity EC50 (μM), Hydrolysis
  EC50: 8.9 µM
[2]; ED 50, inhibition of mitochondrial ATPase activity
  EC50: ~5 µM
[3]
  amounts of drug with minimal cytotoxicity: 10 to 15 µM
  concentrations at which only apoptosis was observed: > 20 µM
[4]
  EC50: 6 µM
[5]
  EC50: 7.3 µM
[6]
  Kd: ~1 µM
[7]
  induction of MIF: approximately 10 fold
[8]
  EC50: 10 µM
[9]
  drug bound to BSA: ca. 99%
